# Test system: participants with Raynaud's Phenomenon secondary mostly to systemic sclerosis (SSc-RP)
# Assay: Frequency of weekly symptomatic RP attacks (patient diary), Phase 2a study Part A
# Assay type: in vivo, human
# Experimental: A randomized, placebo-controlled phase 2a study was performed and is in progress to assess the safety and efficacy of cilnidipine (10 mg and 20 mg) alone and in combination with 5 mg tadalafil, in participants with diagnosis of scleroderma and/or secondary Raynaud's disease.
# The relevant metrics measured by this tool daily are: • Study medication • SSc-RP symptoms (Reporting an attack including duration of attack) • Severity of the attack considering all symptoms of the attack e.g., tingling, numbness, pain, color changes (VAS 0-10 cm scale) • Participant's location at the time of the attack (inside home/outside home) • Selecting symptoms experienced during the attack (tingling, numbness, pain, color changes, other) • Pain rating during the attack (11-point Likert scale) • The RCS based on how much difficulty participants had with Raynaud's today, how many attacks the participant had, and how long they lasted. Participants will also be asked to consider how much pain, numbness, or other symptoms the Raynaud's caused in fingers (including painful sores), and how much the Raynaud's alone affected the use of hands today (VAS 0-10 cm scale).
# Percent change from baseline evaluation for frequency of weekly RP attacks were or will be used as the primary efficacy variable. The sponsor-developed participant-informed diary will be used to record data. Frequency of weekly RP attacks is defined as the total number of RP attacks divided by the number of days with available diary data within the last 7 days of each dosing period then multiplied by 7. Total number of RP attacks during the last 7 days of screening period divided by the number of days with available data then multiplied by 7 will be used as baseline for the analysis of all periods. The variable will be calculated as follows:
# Percentage change={(weekly RP attacks for the last 7 days of each dosing period−Baseline weekly RP attacks)/Baseline weekly RP attacks}*100%.
# Absolute change=weekly RP attacks for the last 7 days of each dosing period−Baseline weekly RP attacks
# Percent change from baseline evaluation for frequency of weekly RP attacks was and will be the primary efficacy endpoint. Frequency of weekly RP attacks is defined as the total number of RP attacks divided by the number of days with available diary data within the last 7 days of each dosing period then multiplied by 7. Total number of RP attacks during the last 7 days of screening period divided by the number of days with available data then multiplied by 7 will be used as baseline for the analysis of all periods.
# The following data was actually obtained in accordance with the protocol and plan delineated in Examples 1 and 2. The accompanying data involved 11 patients out of the planned 76 patient study. The study was done in patients with scleroderma (systemic sclerosis) who had relatively frequent Raynaud symptoms as they needed to average at least one attack per day during a screening period of up to two weeks. In this first phase of this double-blind placebo-controlled, prospective randomized study, patients were treated in parallel and after meeting study criteria were randomized to receive either placebo, cilnidipine 10 mg daily, cilnidipine 20 mg daily, tadalafil 5 mg daily, cilnidipine 10 mg plus 5 mg of tadalafil, or cilnidipine 20 mg plus 5 mg of tadalafil.
# [1] = Pooled Cilnidipine 20 mg and Cilnidipine 20 mg + Tadalafil 5 mg, n 4, Excluding Outliers, ITT Part A
# [2] = Pooled Cilnidipine (N = 3), ITT Part A
# [3] = Pooled Cilnidipine, n 3, Excluding Outliers, ITT Part A
# [4] = Pooled Cilnidipine, n 3, by Baseline RCS, 1st block (RCS <5.0), ITT Part A
# [5] = all cilnidipine and cilnidipine plus tadalafil treated patients (n=7)
# [6] = excluding outliers, by baseline RCS, first subgroup, cilnidipine 10 mg, tadalafil 5 mg daily
# [7] = excluding outliers, by baseline RCS, first subgroup, cilnidipine 20 mg, tadalafil 5 mg daily
# [8] = excluding outliers, by baseline RCS, first subgroup, pooled cilnidipine 10 mg and 20 mg, tadalafil 5 mg daily
compound,measurement,setting,value
"COCCOC(=O)C1=C(C)NC(C)=C(C(=O)OC/C=C/c2ccccc2)C1c1cccc([N+](=O)[O-])c1 (centres unmarked) [Cilnidipine, cilnidipine]","Weekly Symptomatic RP Attacks Change from Baseline, Median",[1],−3.50
same,"Weekly Symptomatic RP Attacks Percent Change from Baseline, Mean (SD)",[1],−25.00 (14.410) %
same,"Weekly Symptomatic RP Attacks Percent Change from Baseline, Median",[1],−28.17%
same,"Weekly Symptomatic RP Attacks, Mean (SD)",[1],9.75 (3.403)
same,"Weekly Symptomatic RP Attacks, Median",[1],10.50
same,"Weekly Symptomatic RP Attacks Change from Baseline, Mean",[2],−5.33
same,"Weekly Symptomatic RP Attacks Change from Baseline, Median",[2],−7.00
same,"Weekly Symptomatic RP Attacks Percent Change from Baseline, Mean",[2],−33.60%
same,"Weekly Symptomatic RP Attacks Percent Change from Baseline, Median",[2],−33.33%
same,"Weekly Symptomatic RP Attacks, Mean",[2],10.00
same,"Weekly Symptomatic RP Attacks, Median",[2],11.00
same,"Weekly Symptomatic RP Attacks Change from Baseline, Mean (SD)",[3],−5.33 (2.887)
same,"Weekly Symptomatic RP Attacks Change from Baseline, Median",[3],−7.00
same,"Weekly Symptomatic RP Attacks Percent Change from Baseline, Mean (SD)",[3],−33.60 (5.164) %
same,"Weekly Symptomatic RP Attacks Percent Change from Baseline, Median",[3],−33.33%
same,"Weekly Symptomatic RP Attacks, Mean (SD)",[3],10.00 (4.583)
same,"Weekly Symptomatic RP Attacks, Median",[3],11.00
same,"Weekly Symptomatic RP Attacks Change from Baseline, Mean (SD)",[4],−5.33 (2.887)
same,"Weekly Symptomatic RP Attacks Change from Baseline, Median",[4],−7.00
same,"Weekly Symptomatic RP Attacks Percent Change from Baseline, Mean (SD)",[4],−33.60 (5.164) %
same,"Weekly Symptomatic RP Attacks Percent Change from Baseline, Median",[4],−33.33%
same,"Weekly Symptomatic RP Attacks, Mean (SD)",[4],10.00 (4.583)
same,"Weekly Symptomatic RP Attacks, Median",[4],11.00
same,patients in whom the average frequency of Raynaud's attacks decreased more than 25%,[5],6 of 7
same,"weekly frequency of Raynaud attacks, direction of change",[5],decrease
same,"reduction in the weekly frequency of attacks, range","baseline RCS <5.0, all cilnidipine and cilnidipine plus tadalafil treated patients (n=5)",28%-44%
same,"Weekly Symptomatic RP Attacks Change from Baseline, Max",[6],"−7.0, −7.0"
same,"Weekly Symptomatic RP Attacks Change from Baseline, Mean (SD)",[6],−7.00
same,"Weekly Symptomatic RP Attacks Change from Baseline, Median",[6],−7.00
same,"Weekly Symptomatic RP Attacks Change from Baseline, Min",[6],"−7.0, −7.0"
same,"Weekly Symptomatic RP Attacks Change from Baseline, Q1",[6],"−7.00, −7.00"
same,"Weekly Symptomatic RP Attacks Change from Baseline, Q3",[6],"−7.00, −7.00"
same,"Weekly Symptomatic RP Attacks Percent Change from Baseline, Max",[6],"−33.3, −33.3%"
same,"Weekly Symptomatic RP Attacks Percent Change from Baseline, Mean (SD)",[6],−33.33%
same,"Weekly Symptomatic RP Attacks Percent Change from Baseline, Median",[6],−33.33%
same,"Weekly Symptomatic RP Attacks Percent Change from Baseline, Min",[6],"−33.3, −33.3%"
same,"Weekly Symptomatic RP Attacks Percent Change from Baseline, Q1",[6],"−33.33, −33.33%"
same,"Weekly Symptomatic RP Attacks Percent Change from Baseline, Q3",[6],"−33.33, −33.33%"
same,"Weekly Symptomatic RP Attacks, Max",[6],"14.0, 14.0"
same,"Weekly Symptomatic RP Attacks, Mean (SD)",[6],14.00
same,"Weekly Symptomatic RP Attacks, Median",[6],14.00
same,"Weekly Symptomatic RP Attacks, Min",[6],"14.0, 14.0"
same,"Weekly Symptomatic RP Attacks, Q1",[6],"14.00, 14.00"
same,"Weekly Symptomatic RP Attacks, Q3",[6],"14.00, 14.00"
same,"Weekly Symptomatic RP Attacks Change from Baseline, Max",[7],−2.0
same,"Weekly Symptomatic RP Attacks Change from Baseline, Mean (SD)",[7],−4.50 (3.536)
same,"Weekly Symptomatic RP Attacks Change from Baseline, Median",[7],−4.50
same,"Weekly Symptomatic RP Attacks Change from Baseline, Min",[7],−7.0
same,"Weekly Symptomatic RP Attacks Change from Baseline, Q1",[7],−7.00
same,"Weekly Symptomatic RP Attacks Change from Baseline, Q3",[7],−2.00
same,"Weekly Symptomatic RP Attacks Percent Change from Baseline, Max",[7],−28.6%
same,"Weekly Symptomatic RP Attacks Percent Change from Baseline, Mean (SD)",[7],−33.73 (7.296) Percent
same,"Weekly Symptomatic RP Attacks Percent Change from Baseline, Median",[7],−33.73%
same,"Weekly Symptomatic RP Attacks Percent Change from Baseline, Min",[7],−38.9%
same,"Weekly Symptomatic RP Attacks Percent Change from Baseline, Q1",[7],−38.89%
same,"Weekly Symptomatic RP Attacks Percent Change from Baseline, Q3",[7],−28.57%
same,"Weekly Symptomatic RP Attacks, Max",[7],11.0
same,"Weekly Symptomatic RP Attacks, Mean (SD)",[7],8.00 (4.243)
same,"Weekly Symptomatic RP Attacks, Median",[7],8.00
same,"Weekly Symptomatic RP Attacks, Min",[7],5.0
same,"Weekly Symptomatic RP Attacks, Q1",[7],5.00
same,"Weekly Symptomatic RP Attacks, Q3",[7],11.00
same,"Weekly Symptomatic RP Attacks Change from Baseline, Max",[8],−2.0
same,"Weekly Symptomatic RP Attacks Change from Baseline, Mean (SD)",[8],−5.33 (2.887)
same,"Weekly Symptomatic RP Attacks Change from Baseline, Median",[8],−7.00
same,"Weekly Symptomatic RP Attacks Change from Baseline, Min",[8],−7.0
same,"Weekly Symptomatic RP Attacks Change from Baseline, Q1",[8],−7.00
same,"Weekly Symptomatic RP Attacks Change from Baseline, Q3",[8],−2.00
same,"Weekly Symptomatic RP Attacks Percent Change from Baseline, Max",[8],−28.6%
same,"Weekly Symptomatic RP Attacks Percent Change from Baseline, Mean (SD)",[8],−33.60 (5.164) Percent
same,"Weekly Symptomatic RP Attacks Percent Change from Baseline, Median",[8],−33.33%
same,"Weekly Symptomatic RP Attacks Percent Change from Baseline, Min",[8],−38.9%
same,"Weekly Symptomatic RP Attacks Percent Change from Baseline, Q1",[8],−38.89%
same,"Weekly Symptomatic RP Attacks Percent Change from Baseline, Q3",[8],−28.57%
same,"Weekly Symptomatic RP Attacks, Max",[8],14.0
same,"Weekly Symptomatic RP Attacks, Mean (SD)",[8],10.00 (4.583)
same,"Weekly Symptomatic RP Attacks, Median",[8],11.00
same,"Weekly Symptomatic RP Attacks, Min",[8],5.0
same,"Weekly Symptomatic RP Attacks, Q1",[8],5.00
same,"Weekly Symptomatic RP Attacks, Q3",[8],14.00

# Reference: patent US20240358693A1, “METHODS OF TREATING PAIN” (Aisa Pharma, Inc., priority 2023, published 2024)
